Laboratory results from patent US6218369A, “Pharmaceutical compositions containing flavanolignanes and methods for using same as an antiproliferative” (Indena S.p.A., priority 1995, dated 2001).
Read-outs that look alike come from different tables or passages of the source.

Tests used:
MCF-7 ADRr line = assay: synergistic antiproliferative effect of a combination of ADR and silybin (isobolic method); assay type: cell-based, human
Method: (§1) The determination of the binding to the estrogen receptor has been carried out on cells of ovary tumor or of other organ tumors, cultured in monolayers using as medium the Dulbecco Modified Medium added with calf serum and with 200 unities/ml of penicillin. The cells used for the tests have been trypsinated every week and placed on a plate at a […] density and incubated at 37° C. under air atmosphere containing 5% CO2 and humidity. […] After 24 hours the medium is substituted with fresh medium and the flavanolignanes dissolved in absolute ethanol are added. […] The treatment described above is repeated at 24 hour intervals during the 72 hours of the test time. The inhibition of the cell proliferation is evaluated by direct count of the cells, comparing the growth of the controls versus that of the treated samples.
(§2) The inhibition on cell proliferation is evaluated by direct count of the cells, comparing the growth of controls versus that of the treated ones.
(§3) In order to verify wether such an effect of a combination of silybin with adriamycin or cisplatin is due to a synergistic or an additive action, the data have been analyzed with the isobolic method by Berenbau (Adv. Cancer Res., 25, 269, 1981).

A2780 WT cell line = assay: synergistic antiproliferative effect of the CIS-silybin combination (isobolic method); assay type: cell-based, human
Method: (§4) The determination of the binding to the estrogen receptor has been carried out on cells of ovary tumor or of other organ tumors, cultured in monolayers using as medium the Dulbecco Modified Medium added with calf serum and with 200 unities/ml of penicillin. The cells used for the tests have been trypsinated every week and placed on a plate at a […] density and incubated at 37° C. under air atmosphere containing 5% CO2 and humidity. […] After 24 hours the medium is substituted with fresh medium and the flavanolignanes dissolved in absolute ethanol are added. The controls are treated in the same experimental conditions only with the vehicle in the absence of the active ingredient. The treatment described above is repeated at 24 hour intervals during the 72 hours of the test time. The inhibition of the cell proliferation is evaluated by direct count of the cells, comparing the growth of the controls versus that of the treated samples.
as §2
As reported in Table III, when silybin is used in combination with CIS, a synergistic inhibition effect on the growth is observed, compared with corresponding doses of the medicaments used alone.
as §3

A2780 WT cells [1] = assay: antiproliferative effect on A2780 WT ovary carcinoma cells (direct cell count); assay type: cell-based, human; settings: for IC50: Homo sapiens
Method: as §1, with “samples. The inhibition on cell proliferation is evaluated by direct count of the cells, comparing the growth of controls versus that of the treated ones. […] The results are the average of two experiments carried out in triplicated.” for “samples.”

[2] = tested on: tumors implanted in the nude athymic mouse; assay: inhibition of growth of tumors implanted in nude athymic mouse; settings: test not specified (follows in vivo mouse and man results)
Method: Moreover, the above flavanolignanes were evidenced to inhibit in vivo the cell proliferation, by measuring the size of tumors implanted in the nude athymic mouse according to the conventional conditions of literature. The treatment of the animals at doses from 1 to 100 mg/Kg evidenced a marked regression of the studied tumors until their disappearance in a high percentage of individuals.
In the in vitro tests flavanolignanes have been used as such, whereas in in vivo tests the complexes thereof with phospholipids, described in EP-A-0209038, have been used.

[3] = target: estrogen receptors of type II; settings: read-out: dissociation affinity constant KD; cited from earlier work
human leukemia cells = settings: cited from earlier work
other cell lines = settings: cited from earlier work
A2780 CIS cells = assay: antiproliferative effect on A2780 CIS (CIS resistant) ovary carcinoma cells; assay type: cell-based; settings: Homo sapiens, A2780cis, ovary ca CIS resistant, exposure 72 h
Method: as §4, §2

OVCA-433 cells = assay: antiproliferative effect on OVCA-433 ovary carcinoma cells; assay type: cell-based; settings: Homo sapiens, OVCA433; OVCA-433, ovary ca, exposure 72 h
Method: as §4, §2

MCF-7 ADRr cells = assay: antiproliferative effect on MCF-7 ADRr (ADR resistant) breast carcinoma cells; assay type: cell-based; settings: Homo sapiens, MCF7, breast ca ADR resistant, exposure 72 h
Method: as §4, §2

[4] = tested on: different stabilized cell lines, including MCF-7 ADRr, A2780 CIS; assay: antiproliferative effect on different stabilized cell lines (overall statement); assay type: cell-based, human
Source text: In order to verify the antiproliferative effect of flavanolignanes, the growth curves of different stabilized cell lines deriving from various human tumors have been examined in the presence of the compounds and their capability to interact with the Type II EBS in ovary carcinoma samples has been evaluated.
as §4, §2

A2780 WT cells [5] = assay: cytofluorimetric analysis of cell cycle phase distribution; assay type: cell-based, human
Method: *A2780 WT cells were cultured for 2 days with or without 10 μM silybin.

[6] = tested on: human tumor primary cultures; assay: antiproliferative activity on human tumor primary cultures; assay type: cell-based
Source text: A plurality of the tested flavanolignanes have a similar behaviour. In Table V, the data relating to silybin, silidianin, silymarin and dehydrosilybin are reported. The diastereomeric forms of silybin and isosilybin are as well active in these tests.

[7] = isoeffective with ADR 0.1 μg/ml + silybin 0.1 μM (80% of control)
[8] = isoeffective with ADR 0.5 μg/ml + silybin 0.1 μM (76% of control)
[9] = isoeffective with ADR 1 μg/ml + silybin 0.1 μM (69% of control)
[10] = isoeffective with ADR 2.5 μg/ml + silybin 0.1 μM (62% of control)
[11] = isoeffective with ADR 5 μg/ml + silybin 0.1 μM (47% of control)
[12] = isoeffective with ADR 10 μg/ml + silybin 0.1 μM (39% of control)
[13] = isoeffective with CIS 0.1 μg/ml + silybin 0.1 μM (67% control)
[14] = isoeffective with CIS 0.1 μg/ml + silybin 1 μM (54% control)
[15] = isoeffective with CIS 0.25 μg/ml + silybin 0.1 μM (58% control)
[16] = isoeffective with CIS 0.25 μg/ml + silybin 1 μM (35% control)
[17] = isoeffective with CIS 0.5 μg/ml + silybin 0.1 μM (37% control)
[18] = isoeffective with CIS 0.5 μg/ml + silybin 1 μM (25% control)
[19] = isoeffective with CIS 1 μg/ml + silybin 0.1 μM (18% control)
[20] = isoeffective with CIS 1 μg/ml + silybin 1 μM (12% control)
[21] = A2780 WT, ovary ca, exposure 72 h, read-out: IC50

## COc1cccc2c1C(=O)c1c(O)c3c(c(O)c1C2=O)C[C@@](O)(C(=O)CO)C[C@@H]3O[C@H]1C[C@H](N)[C@H](O)[C@H](C)O1 [ADR, adriamycin, reference compound]
MCF-7 ADRr line; [7]
  ADR (isoeffective dose alone): 0.6 μM/ml
MCF-7 ADRr line; [8]
  ADR (isoeffective dose alone): 0.9 μM/ml
MCF-7 ADRr line; [9]
  ADR (isoeffective dose alone): 2.5 μM/ml
MCF-7 ADRr line; [10]
  ADR (isoeffective dose alone): 5.4 μM/ml
MCF-7 ADRr line; [11]
  ADR (isoeffective dose alone): > 10 μM/ml
MCF-7 ADRr line; [12]
  ADR (isoeffective dose alone): > 10 μM/ml

## N.N.[Cl][Pt][Cl] [CIS, cisplatin, reference compound]
A2780 WT cell line; [13]
  CIS (isoeffective dose alone): 0.23 µg/mL
A2780 WT cell line; [14]
  CIS (isoeffective dose alone): 0.34 µg/mL
A2780 WT cell line; [15]
  CIS (isoeffective dose alone): 0.31 µg/mL
A2780 WT cell line; [16]
  CIS (isoeffective dose alone): 0.56 µg/mL
A2780 WT cell line; [17]
  CIS (isoeffective dose alone): 0.54 µg/mL
A2780 WT cell line; [18]
  CIS (isoeffective dose alone): 0.82 µg/mL
A2780 WT cell line; [19]
  CIS (isoeffective dose alone): > 1 µg/mL
A2780 WT cell line; [20]
  CIS (isoeffective dose alone): > 1 µg/mL

## COc1cc(C2Oc3cc(-c4oc5cc(O)cc(O)c5c(=O)c4O)ccc3OC2CO)ccc1O (stereo not shown) [dehydrosilybin]
A2780 WT cells [1]; A2780, 72 h
  IC50: 2.88 µM
[2]
  activity: particularly marked activity

## C[C@]12CC[C@@H]3c4ccc(O)cc4CC[C@H]3[C@@H]1CC[C@@H]2O [estradiol]
[3]
  Kd: 0.01 to 0.02 µM

## COc1cc(C2Oc3ccc(C4Oc5cc(O)cc(O)c5C(=O)C4O)cc3OC2CO)ccc1O (stereo not shown) [isosilybin]
A2780 WT cells [1]; diastereomeric forms, growth tests of Table V
  activity in these tests: active

## O=c1c(O)c(-c2ccc(O)c(O)c2)oc2cc(O)cc(O)c12 [quercetin]
Human leukemia cells
  inhibiting activity on proliferation: some inhibiting activity
Other cell lines
  activity with the usual chemotherapeuticals: synergistic activity
Other cell lines; other cell lines
  inhibiting activity on proliferation: some inhibiting activity

## COc1cc(C2C3C=C([C@H]4Oc5cc(O)cc(O)c5C(=O)[C@@H]4O)C4C2COC4(O)C3=O)ccc1O (stereo partly shown) [silidianin]
A2780 WT cells [1]; [21]
  IC50: 12 µM
[2]
  activity: particularly marked activity

## COc1cc(C2Oc3cc(C4Oc5cc(O)cc(O)c5C(=O)C4O)ccc3OC2CO)ccc1O (stereo not shown) [silybin]
A2780 WT cells [1]; [21]
  IC50: 12 µM
A2780 CIS cells
  IC50: 14 µM
OVCA-433 cells
  IC50: 4.8 µM
MCF-7 ADRr cells
  IC50: 24 µM
[4]; 0.01 μM to 20 μM, FIG. 1 and Table I
  antiproliferative effect: dose-dependent antiproliferative effect
[4]; Homo sapiens, different cell lines, silybin 0.01 μM to 20 μM, read-out: IC50 (range over cell lines)
  IC50: 4.8 to 24 µM
A2780 WT cells [5]; 10 μM silybin, 2 days, control 10.3
  cells in phase G2/M: 8.6%
A2780 WT cells [5]; 10 μM silybin, 2 days, control 31
  cells in phase S: 20.9%
A2780 WT cells [5]; 10 μM silybin, 2 days, control 58.7
  cells in phase G0/G1: 70.5%
A2780 WT cells [5]; A2780 WT
  effect on percentage of phase G0/G1 cells: mild increase
  effect on percentage of phase S cells: decrease in the percentage of phase S cells
A2780 WT cell line; [13]
  Silybin (isoeffective dose alone): 2.9 µM
A2780 WT cell line; [14]
  Silybin (isoeffective dose alone): 8.2 µM
A2780 WT cell line; [15]
  Silybin (isoeffective dose alone): 6.4 µM
A2780 WT cell line; [16]
  Silybin (isoeffective dose alone): > 50 µM
A2780 WT cell line; [17]
  Silybin (isoeffective dose alone): > 50 µM
A2780 WT cell line; [18]
  Silybin (isoeffective dose alone): > 50 µM
A2780 WT cell line; [19]
  Silybin (isoeffective dose alone): > 50 µM
A2780 WT cell line; [20]
  Silybin (isoeffective dose alone): > 50 µM
MCF-7 ADRr line; [7]
  Silybin (isoeffective dose alone): 0.1 µM
MCF-7 ADRr line; [8]
  Silybin (isoeffective dose alone): 0.36 µM
MCF-7 ADRr line; [9]
  Silybin (isoeffective dose alone): 2.2 µM
MCF-7 ADRr line; [10]
  Silybin (isoeffective dose alone): 7 µM
MCF-7 ADRr line; [11]
  Silybin (isoeffective dose alone): 35 µM
MCF-7 ADRr line; [12]
  Silybin (isoeffective dose alone): > 50 µM
[6]
  antiproliferative activity: antiproliferative activity
